Measurements as given in patent publication US12213978B2, “Madrasin-derivative compounds, composition and uses thereof for treating cancer” (INSTITUT GUSTAVE ROUSSY, priority 2018, dated 2025).

Tests used:
B16F10 WT cells = assay: Re-challenge of tumor-free mice at day 100 with B16F10 WT cells; format: in vivo, mouse; details: mice with complete tumor regression after treatment, re-challenged 100 days later, left flank
From the text: (§1) Growth curve of MCA205 globin-SL8-intron cells and B16F10 WT cells inoculated at day 100 into the right and the left flank, respectively, of C57BL/6 mice which experienced complete tumor regression after treatment with Madra.HCl.
(§2) Finally, mice which were inoculated with MCA205 tumor cells expressing the Globin-intron-SL8 construct, and that experienced complete tumor regression after treatment with Madra.HCl as described above were re-challenged 100 days later with MCA205 tumor cells expressing the Globin-intron-SL8 construct on the right flank and with B16F10 tumor cells on the left flank.

[1] = system: MCA205 sarcoma cells expressing the intron-derived SL8 antigen; assay: T-cell assay: B3Z specific T-cell activation by MCA205 cells expressing the intron-derived SL8 antigen; format: cell-based, mouse
Method: (§3) MCA205 mouse sarcoma cell line is cultured at 37° C. under 5% CO2 in RPMI 1640 medium (Life Technologies) in the presence of 1% glutamine, 1% sodium pyruvate, 1% non-essential amino-acids, 1% penicillin/streptomycin and 10% FBS (Life Technologies). B16F10 mouse melanoma cell line is cultured at 37° C. under 5% CO2 in DMEM medium (Life Technologies) containing 1% glutamine, 1% penicillin/streptomycin and 10% FCS under standard conditions. Stable MCA205-Globin-SL8-intron cell line are cultured under the same condition as MCA205 cell line with additional 500 μg/ml G418 (Life Technologies) for selection. Stable B16F10-Globin-SL8-intron cell line are cultured under the same condition as B16F10 cell line with additional 500 μg/ml G418 (Life Technologies) for selection. The SL8/Kb-specific (B3Z) T-cell reporter hybridoma are cultured at 37° C. under 5% CO2 in RPMI 1640 medium (Life Technologies) in the presence of 1% L-glutamine, 1% penicillin/streptomycin, 50 μM β-mercaptoéthanol and 10% FCS.
(§4) MCA205 and B16F10 mouse cell lines are transfected with the plasmid YFP-Globin-SL8-intron or with the PCDNA3 empty plasmid (negative control) with the transfection reagent jetPRIME (Ozyme) or GeneJuice (Millipore) respectively according to each manufacturer protocol. Twenty-four hours after transfection, cells are treated with different doses of Madrasin (Sigma SML 1409), Madra.HCl (3·HCl) or the different compounds herein cited. Cells are then washed three times with PBS 1× and 5.10^4 tumor cells are co-cultured with 1.10^5 B3Z hybridoma in a 96-well plate. In positive control wells, 4 μg/ml of synthetic peptide SL8 is added. Cells are then incubated overnight at 37° C. with 5% CO2. The plate is centrifuged at 1200 rpm for 5 min, cells are washed twice with PBS 1× and lysed for 5 min at 4° C. under shaking in 0.2% TritonX-100, 0.2% DTT, 0.5M K2HPO4, 0.5M KH2PO4. The lysate is centrifuged at 3000 rpm for 10 min and the supernatant is transferred to a 96-well optiplate (OptiPlaque-96, PerkinElmer). A revelation buffer containing 10 mM MgCl2, 11.2 mM β-mercaptoethanol, 0.0015% IGEPAL® CA-630 and 40 μM 4-Methylumbelliferyl β-D-Galactopyranoside (MUG) in PBS is added and the plate is incubated at room temperature for 3 hours. Finally, the β-galactosidase activity is measured using the FLUOstar OPTIMA (BMG LABTECH Gmbh, 30 Offenburg, Germany). Results are expressed as mean±SEM. *P<0.05, **P<0.01, ***P<0.001 (unpaired student t test).

Solubility in water = format: physicochemical
[2] = system: Wild type MCA205 sarcoma cells; assay: Tumor challenge: wild type MCA205 tumors in immunocompetent C57BL/6 mice; format: in vivo, mouse
Method: (§5) Wild type MCA205 sarcoma cells or MCA205 sarcoma cells expressing the globin-SL8-intron construct (MCA205 globin-SL8-intron) were subcutaneously inoculated into the flank of immunocompetent C57BL/6 mice subsequently injected intraperitoneally with 20 mg/kg or 40 mg/kg of Madra.HCl at day 4, 7, 10 and 14 post tumor inoculation. Tumor size was assessed every 3 to 4 days until the established ethical endpoints were reached. The panel C represents the growth curve of MCA205 sarcoma cells expressing the globin-SL8-intron construct (MCA205 globin-SL8-intron), the panel D represents the tumor size at day 25. The panel E represents the growth curve of Wild type MCA205 sarcoma cells (MCA205 WT), the panel F represents the tumor size at day 21. Data are given as mean±SEM. *p<0.05, **p<0.01 (ANOVA with Tukey's multiple comparison test comparing all groups).
(§6) Wild type MCA205 sarcoma cells or MCA205 sarcoma cells expressing the globin-SL8-intron construct (MCA205 globin-SL8-intron) were subcutaneously inoculated into the flank of immunocompetent C57BL/6 mice subsequently injected intraperitoneally with 20 mg/kg of EYP59 at day 4, 7, 10 and 14 post tumor inoculation. Tumor size was assessed every 3 to 4 days until the established ethical endpoints were reached (A). The upper panel B represents the growth curve of MCA205 sarcoma cells expressing the globin-SL8-intron construct (MCA205 globin-SL8-intron), the lower panel B represents the tumor size at day 23. The upper panel C represents the growth curve of Wild type MCA205 sarcoma cells (MCA205 WT), the lower panel C represents the tumor size at day 19. The panel D represents the growth curve of Wild type MCA205 sarcoma cells (MCA205 WT) in immunodeficient nu/nu mice with the same settings as previously described for the immunocompetent mice. Data are given as mean±SEM. *p<0.05, **p<0.01 (ANOVA with Tukey's multiple comparison test comparing all groups).
Wild type MCA205 sarcoma cells were subcutaneously inoculated into the flank of immunocompetent C57BL/6 mice subsequently injected intratumorally with 2.5 mg/kg of EYP59 at day 4, 7, 10 and 14 post tumor inoculation or intravenously with 5 mg/kg of EYP59 at day 4, 7, 10 and 14 post tumor inoculation. The upper panel A represents the growth curve of wild type MCA205 sarcoma cells, the lower panel A represents the tumor size at day 21. The upper panel B represents the growth curve of wild type MCA205 sarcoma cell, the lower panel B represents the tumor size at day 25. Data are given as mean±SEM. *p<0.05, **p<0.01 (ANOVA with Tukey's multiple comparison test comparing all groups).
(§7) C57Bl/6J female mice are obtained from Harlan Laboratories Ltd, Switzerland. 7 week-old mice are injected subcutaneously into the right flank with 1.10^5 MCA205 sarcoma or B16F10 melanoma cells or 1.5.10^5 MCA205 globin-SL8-intron or B16F10 globin-SL8-intron cells. Sarcoma cells are injected in 100 μL sterile PBS while melanoma cells are injected in 50:50 PBS:Matrigel to prevent tumor cell dissemination. Madra.HCl is injected 4, 7, 10 and 14 days post tumor inoculation, in 100 μL H2O+[…] (2-Hydroxypropyl)-β-cyclodextrin (w/v). In the same manner EYP59 (compound 7) is injected 4, 7, 10 and 14 days post tumor inoculation, in 100 μL H2O. Area of the tumor is recorded every 3 to 4 days until the tumor reaches the ethical end points. […] Results are expressed as mean±SEM. *p<0.05, **P<0.01, ***P<0.001 (ANOVA with Tukey's multiple comparison test comparing all groups).

[3] = system: MCA205 globin-SL8-intron cells; assay: Re-challenge of tumor-free mice at day 100 with MCA205 globin-SL8-intron cells; format: in vivo, mouse; details: mice with complete tumor regression after treatment, re-challenged 100 days later, right flank
From the text: as §1, §2

[4] = system: MCA205 sarcoma cells expressing the globin-SL8-intron construct; assay: Tumor challenge: MCA205 globin-SL8-intron tumors in immunocompetent C57BL/6 mice; format: in vivo, mouse; details: for survivors: 120 days after tumor inoculation
Method: as §5, §6, §7

[5] = system: B16F10 melanoma cells expressing the intron-derived SL8 antigen; assay: T-cell assay: B3Z specific T-cell activation by B16F10 cells expressing the intron-derived SL8 antigen; format: cell-based, mouse
Method: as §3, §4

[6] = system: Wild type MCA205 sarcoma cells; assay: Tumor challenge: wild type MCA205 tumors in immunodeficient nu/nu mice; format: in vivo, mouse; details: 20 mg/kg
Method: as §6
In order to assess the requirement of the immune response for this effect, inventors tested the impact of 20 mg/kg EYP59 treatment in immunodeficient nu/nu mice with the same settings as previously described and observed that it has no effect on the tumor growth (FIG. 7D).

SF3B1 = SF3B1 (Homo sapiens, UniProt O75533+Q7RTV0); details: cited from earlier work

With COc1ccc2c(C)nc(Nc3nc(C)c(C)c(=O)[nH]3)nc2c1.Cl [Madra.HCl, Madrasin hydrochloride] the “tumor growth after re-challenge” value (B16F10 WT cells) was “grew over time”, the “PTPs-dependent antigen presentation (B3Z T-cell activation)” value ([1]; MCA205, 5 μM or 10 μM, dose dependent) was “increase” and the solubility in water (Solubility in water) was “able to be dissolved in water”. For the same compound, the “reduction of tumor growth” value ([2]; 20 mg/kg intraperitoneally, day 21 after challenge) was 40%, the “reduction of tumor growth” value ([2]; 40 mg/kg intraperitoneally, day 21 after challenge) was 40% and the “tumor growth after re-challenge” value [3] was “did not grow”. For the same compound, the survivors ([4]; 20 mg/kg intraperitoneally) was “around 15%”, the “reduction of tumor growth” value ([4]; 20 mg/kg intraperitoneally, day 27 after challenge) was 50% and the survivors ([4]; 40 mg/kg intraperitoneally) was “around 25%”. The “PTPs-dependent antigen presentation (B3Z T-cell activation)” value ([5]; B16F10, 5 μM or 10 μM, dose dependent) was “increase”.

For Cc1nc(Nc2nc(C)c3ccc(OP(=O)(O)O)cc3n2)[nH]c(=O)c1C [EYP59, Sodium 2-((4,5-dimethyl-6-oxo-1,6-dihydropyrimidin-2-yl)amino)-4-methylquinazolin-7-yl Phosphate], the “PTP-SL8 presentation (B3Z T-cell activation)” value ([1]; MCA205, 60 μM, O/N) was “increase”, the “reduction of tumor growth” value ([2]; 2.5 mg/kg intratumorally, day 21 after challenge) was 75% and the “reduction of tumor growth” value ([2]; 5 mg/kg intravenously, day 25 after challenge) was 80%. The “reduction of tumor growth” value ([2]; 20 mg/kg intraperitoneally, day 19 after challenge) was 70%, the “reduction of tumor growth” value ([4]; 20 mg/kg intraperitoneally, day 23 after challenge) was 85% and the “effect on the tumor growth” value [6] was “no effect”. The “PTP-SL8 presentation (B3Z T-cell activation)” value ([5]; B16F10, 60 μM, O/N) was “increase”.

For CC[C@H](O)[C@@H](C)[C@H]1O[C@@H]1C[C@@](C)(O)/C=C/C=C(\C)[C@H]1OC(=O)C[C@H](O)CC[C@@](C)(O)[C@@H](OC(=O)N2CCN(C3CCCCCC3)CC2)/C=C/[C@@H]1C [E7107], the “outcome of testing in human” value (SF3B1) is listed as “stopped because of problems of toxicity”.
